Read-outs that look alike come from different tables or passages of the source.
Columns and labels:
TrkA = molecular target: T1, TrkA (Homo sapiens, UniProt P04629); assay: Kinase inhibitory activity (33P-ATP, filtration-binding method, Reaction Biology Corp.); type: biochemical; details: read-out: Half maximal inhibitory concentration IC50 for kinases, TrkA
T1 construct: purchased Reaction Biology Corp
Method: (§1) The mixture was incubated at room temperature for 20 minutes, added with ^33P-ATP at a certain concentration to start the reaction, and then incubated at room temperature for 120 minutes. Finally, the radioactivity of the reactant was detected by the filtration-binding method. The final kinase activity was expressed as the ratio of the remaining kinase activity in the test sample to the kinase activity of the DMSO control. The dose-response curves were fitted and IC50 values were calculated by GraphPad software.

Ros1 = molecular target: T2, Ros1 (Homo sapiens, UniProt P08922); assay: as above; type: biochemical; details: read-out: Half maximal inhibitory concentration IC50 for kinases, Ros1
T2 construct: purchased Reaction Biology Corp
Method: as §1

TrkA-G667C = molecular target: T3, TrkA-G667C (Homo sapiens, UniProt P04629, G667C); assay: as above; type: biochemical; details: read-out: Half maximal inhibitory concentration IC50 for kinases, TrkA-G667C
T3 construct: purchased Reaction Biology Corp
T3 sequence (P04629 33-796 G667C): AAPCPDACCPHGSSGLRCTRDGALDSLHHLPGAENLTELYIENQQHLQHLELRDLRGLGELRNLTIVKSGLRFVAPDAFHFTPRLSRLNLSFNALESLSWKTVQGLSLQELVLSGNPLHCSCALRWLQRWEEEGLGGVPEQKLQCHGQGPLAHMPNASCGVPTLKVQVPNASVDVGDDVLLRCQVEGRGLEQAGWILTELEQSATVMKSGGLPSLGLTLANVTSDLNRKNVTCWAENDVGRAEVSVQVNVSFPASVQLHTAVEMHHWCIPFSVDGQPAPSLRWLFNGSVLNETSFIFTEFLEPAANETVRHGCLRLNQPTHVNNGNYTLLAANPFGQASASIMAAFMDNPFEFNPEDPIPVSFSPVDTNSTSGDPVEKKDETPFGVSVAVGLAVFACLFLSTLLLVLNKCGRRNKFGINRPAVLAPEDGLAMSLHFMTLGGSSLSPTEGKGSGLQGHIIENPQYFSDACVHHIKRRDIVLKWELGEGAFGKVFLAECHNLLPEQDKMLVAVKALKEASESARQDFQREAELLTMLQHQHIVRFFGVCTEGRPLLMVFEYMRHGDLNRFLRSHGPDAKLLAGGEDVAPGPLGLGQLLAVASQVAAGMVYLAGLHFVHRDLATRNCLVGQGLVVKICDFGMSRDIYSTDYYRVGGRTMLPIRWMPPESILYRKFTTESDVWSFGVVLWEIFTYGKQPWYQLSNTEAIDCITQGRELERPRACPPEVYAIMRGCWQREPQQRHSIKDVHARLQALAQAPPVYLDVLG
Method: as §1

ALK = molecular target: T4, ALK (Homo sapiens, UniProt Q9UM73); assay: as above; type: biochemical; details: read-out: Half maximal inhibitory concentration IC50 for kinases, ALK
T4 construct: purchased Reaction Biology Corp
Method: as §1

TrkA-G595R = molecular target: T5, TrkA-G595R (Homo sapiens, UniProt P04629, G595R); assay: as above; type: biochemical; details: read-out: Half maximal inhibitory concentration IC50 for kinases, TrkA-G595R
T5 construct: purchased Reaction Biology Corp
T5 sequence (P04629 33-796 G595R): as the sequence (P04629 33-796 G667C) above, with G563R, C635G counted along it
Method: as §1

TrkC = molecular target: T6, TrkC (Homo sapiens, UniProt Q16288); assay: as above; type: biochemical; details: read-out: Half maximal inhibitory concentration IC50 for kinases, TrkC
T6 construct: purchased Reaction Biology Corp
T6 sequence (Q16288 32-839): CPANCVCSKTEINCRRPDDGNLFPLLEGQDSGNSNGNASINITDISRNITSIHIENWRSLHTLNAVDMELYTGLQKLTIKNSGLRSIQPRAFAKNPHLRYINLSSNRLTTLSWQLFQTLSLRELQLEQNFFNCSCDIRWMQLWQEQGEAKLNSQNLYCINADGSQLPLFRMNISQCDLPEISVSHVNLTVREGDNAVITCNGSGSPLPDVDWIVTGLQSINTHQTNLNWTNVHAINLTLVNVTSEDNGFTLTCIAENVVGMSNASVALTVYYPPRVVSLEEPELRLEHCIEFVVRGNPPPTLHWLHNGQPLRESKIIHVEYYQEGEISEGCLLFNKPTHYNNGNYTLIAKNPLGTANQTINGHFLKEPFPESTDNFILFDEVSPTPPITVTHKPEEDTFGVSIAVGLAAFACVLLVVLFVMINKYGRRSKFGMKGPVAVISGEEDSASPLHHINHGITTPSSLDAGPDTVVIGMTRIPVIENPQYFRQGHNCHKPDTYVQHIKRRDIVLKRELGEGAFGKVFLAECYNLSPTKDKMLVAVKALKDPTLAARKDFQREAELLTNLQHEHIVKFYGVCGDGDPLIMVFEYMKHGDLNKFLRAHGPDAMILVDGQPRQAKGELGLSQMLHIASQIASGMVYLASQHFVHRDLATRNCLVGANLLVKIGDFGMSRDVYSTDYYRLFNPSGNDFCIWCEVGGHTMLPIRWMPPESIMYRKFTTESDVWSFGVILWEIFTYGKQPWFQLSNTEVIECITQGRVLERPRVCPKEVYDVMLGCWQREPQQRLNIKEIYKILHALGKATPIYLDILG
Method: as §1

BaF3 ETV6-NTRK3-G623R = molecular target: T7, BaF3 ETV6-NTRK3-G623R (Homo sapiens, UniProt Q16288, G623R, cells depend on it); assay: Inhibitory activity against cell proliferation (CellTiter-Glo, 72 hours); type: cell-based; details: read-out: Half maximal inhibitory concentration IC50 of cells, BaF3 ETV6-NTRK3-G623R
T7 construct: fused on or other part: N-terminal part of ETV6 (TEL) as fusion partner (part of the key); P41212 (Transcription factor ETV6)
T7 sequence (Q16288 whole entry G623R, the tested form may be a part): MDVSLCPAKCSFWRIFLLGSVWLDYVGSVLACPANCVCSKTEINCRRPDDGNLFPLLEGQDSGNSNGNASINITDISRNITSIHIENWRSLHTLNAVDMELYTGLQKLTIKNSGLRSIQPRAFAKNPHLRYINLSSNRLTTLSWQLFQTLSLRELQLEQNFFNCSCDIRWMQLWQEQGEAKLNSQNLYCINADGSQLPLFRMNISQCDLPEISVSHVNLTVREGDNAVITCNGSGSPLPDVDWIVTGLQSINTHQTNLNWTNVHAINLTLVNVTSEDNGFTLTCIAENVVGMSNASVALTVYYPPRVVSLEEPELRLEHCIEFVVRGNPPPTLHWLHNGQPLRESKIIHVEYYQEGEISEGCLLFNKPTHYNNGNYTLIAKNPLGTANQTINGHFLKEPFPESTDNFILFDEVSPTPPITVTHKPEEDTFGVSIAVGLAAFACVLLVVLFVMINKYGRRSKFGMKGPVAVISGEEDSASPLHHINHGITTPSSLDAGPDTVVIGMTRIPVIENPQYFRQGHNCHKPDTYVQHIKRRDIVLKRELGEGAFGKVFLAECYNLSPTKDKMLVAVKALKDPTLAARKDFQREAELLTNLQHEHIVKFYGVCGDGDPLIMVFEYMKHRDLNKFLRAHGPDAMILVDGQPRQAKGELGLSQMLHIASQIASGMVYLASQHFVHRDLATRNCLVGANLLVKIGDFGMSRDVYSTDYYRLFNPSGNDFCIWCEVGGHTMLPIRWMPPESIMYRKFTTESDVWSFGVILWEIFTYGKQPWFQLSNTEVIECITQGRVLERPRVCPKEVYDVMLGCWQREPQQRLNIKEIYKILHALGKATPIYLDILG
Method: (§2) Adenosine Triphosphate (ATP) is an energy carrier commonly used in various life activities in nature, and is the minimum unit for energy storage and transfer. The CellTiter-Glo™ cell viability assay kit uses luciferase as an assay agent, which requires the involvement of ATP in luminescence. The CellTiter-Glo™ reagent is added into cell culture medium to measure the luminescence value. The luminescence signal is directly proportional to the amount of ATP in the system, and the ATP is positively correlated with the number of viable cells. Therefore, the proliferation of cells can be detected by detecting the ATP content using the CellTiter-Glo kit. In this test, the cell lines used are Ba/F3 LMNA-NTRK1-WT, Ba/F3 LMNA-NTRK1-F589L, BaF3 LMNA-NTRK1-G595R, BaF3 LMNA-NTRK1-G667A, BaF3 ETV6-NTRK3-WT, BaF3 ETV6-NTRK3-G623R, and Ba/F3 SLC34A2-ROS1-WT stable cell strains, 5000 cells/well.
(§3) a) Cells in the logarithmic growth phase were collected and counted using a […]. The cell viability was detected by the trypan blue exclusion method, and the cell viability was kept over 90%.
(§4) b) The cell concentration was adjusted; 90 μL of the cell suspension was added to a 96-well plate.
c) Cells in the 96-well plate were incubated overnight at 37° C. with 5% CO2 and 95% humidity.
(§5) a) A 10-fold compound solution was prepared, with the highest concentration being 10 μM (a total of 9 concentrations, 3-fold dilution). 10 μL of compound solution was added to each well of a 96-well plate inoculated with cells, and three duplicate wells were set for each compound concentration.
b) The cells in the 96-well plate added with compound were incubated for 72 hours at 37° C. with 5% CO2 and 95% humidity, followed by the CTG (CellTiter-Glo) analysis.
(§6) a) The CTG reagent was thawed and the cell plate was equilibrated to room temperature for 30 minutes.
(§7) b) An equal volume of CTG solution was added to each well.
(§8) c) The plate was shaken on an orbital shaker for 5 minutes to lyse the cells.
(§9) d) The cell plate was placed at room temperature for 20 minutes to stabilize the luminescence signal.
(§10) e) The luminescence value was read.
(§11) The data were analyzed using GraphPad Prism 5.0 software, fitted with nonlinear S-curve regression to give dose-response curves, and IC50 values were calculated therefrom.

Ba/F3 LMNA-NTRK1-WT = molecular target: T8, Ba/F3 LMNA-NTRK1-WT (Homo sapiens, UniProt P04629); assay: as above; type: cell-based; details: read-out: Half maximal inhibitory concentration IC50 of cells, Ba/F3 LMNA-NTRK1-WT
T8 construct: fused on or other part: N-terminal part of LMNA as fusion partner (part of the key); P02545 (Prelamin-A/C)
T8 sequence (P04629 whole entry, change not shown, the tested form may be a part): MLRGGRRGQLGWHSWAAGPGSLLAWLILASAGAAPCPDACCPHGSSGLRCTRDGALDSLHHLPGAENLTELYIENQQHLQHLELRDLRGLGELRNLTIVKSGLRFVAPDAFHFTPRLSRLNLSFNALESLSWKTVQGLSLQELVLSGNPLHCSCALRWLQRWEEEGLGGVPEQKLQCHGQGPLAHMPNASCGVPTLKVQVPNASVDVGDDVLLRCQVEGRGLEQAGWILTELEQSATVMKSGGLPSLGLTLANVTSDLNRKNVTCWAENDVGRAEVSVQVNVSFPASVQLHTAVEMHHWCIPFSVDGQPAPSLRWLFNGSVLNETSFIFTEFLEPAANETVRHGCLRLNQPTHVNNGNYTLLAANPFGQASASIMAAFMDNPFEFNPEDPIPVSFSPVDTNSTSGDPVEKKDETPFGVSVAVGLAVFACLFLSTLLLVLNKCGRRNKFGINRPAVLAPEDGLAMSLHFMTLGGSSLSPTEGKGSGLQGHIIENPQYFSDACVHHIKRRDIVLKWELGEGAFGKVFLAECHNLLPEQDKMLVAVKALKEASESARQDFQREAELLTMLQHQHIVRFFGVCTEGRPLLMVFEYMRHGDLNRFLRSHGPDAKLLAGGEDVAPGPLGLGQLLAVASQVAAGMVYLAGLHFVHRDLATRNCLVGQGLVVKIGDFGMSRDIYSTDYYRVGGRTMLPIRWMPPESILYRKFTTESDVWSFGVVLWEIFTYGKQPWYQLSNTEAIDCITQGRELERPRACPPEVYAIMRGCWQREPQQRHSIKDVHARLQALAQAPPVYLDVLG
Method: as §2, with “kit.” for “kit. In this test, the cell lines used are Ba/F3 LMNA-NTRK1-WT, Ba/F3 LMNA-NTRK1-F589L, BaF3 LMNA-NTRK1-G595R, BaF3 LMNA-NTRK1-G667A, BaF3 ETV6-NTRK3-WT, BaF3 ETV6-NTRK3-G623R, and Ba/F3 SLC34A2-ROS1-WT stable cell strains, 5000 cells/well.”
as §3, §4, §5, §6, §7, §8, §9, §10, §11

BaF3 LMNA-NTRK1-G595R = molecular target: T9, BaF3 LMNA-NTRK1-G595R (Homo sapiens, UniProt P04629, G595R, cells depend on it); assay: as above; type: cell-based; details: read-out: Half maximal inhibitory concentration IC50 of cells, BaF3 LMNA-NTRK1-G595R
T9 construct: fused on or other part: N-terminal part of LMNA as fusion partner (part of the key); P02545 (Prelamin-A/C)
Method: as §2, with “kit.” for “kit. In this test, the cell lines used are Ba/F3 LMNA-NTRK1-WT, Ba/F3 LMNA-NTRK1-F589L, BaF3 LMNA-NTRK1-G595R, BaF3 LMNA-NTRK1-G667A, BaF3 ETV6-NTRK3-WT, BaF3 ETV6-NTRK3-G623R, and Ba/F3 SLC34A2-ROS1-WT stable cell strains, 5000 cells/well.”
as §3, §4, §5, §6, §7, §8, §9, §10, §11

Ba/F3 SLC34A2-ROS1-WT = molecular target: T10, Ba/F3 SLC34A2-ROS1-WT (Homo sapiens, UniProt P08922); assay: as above; type: cell-based; details: read-out: Half maximal inhibitory concentration IC50 of cells, Ba/F3 SLC34A2-ROS1-WT
T10 construct: fused on or other part: N-terminal part of SLC34A2 as fusion partner (part of the key); O95436 (Sodium-dependent phosphate transport protein 2B)
Method: as §2, with “kit.” for “kit. In this test, the cell lines used are Ba/F3 LMNA-NTRK1-WT, Ba/F3 LMNA-NTRK1-F589L, BaF3 LMNA-NTRK1-G595R, BaF3 LMNA-NTRK1-G667A, BaF3 ETV6-NTRK3-WT, BaF3 ETV6-NTRK3-G623R, and Ba/F3 SLC34A2-ROS1-WT stable cell strains, 5000 cells/well.”
as §3, §4, §5, §6, §7, §8, §9, §10, §11

BaF3 LMNA-NTRK1-G667A = molecular target: T11, BaF3 LMNA-NTRK1-G667A (Homo sapiens, UniProt P04629, G667A, cells depend on it); assay: as above; type: cell-based; details: read-out: Half maximal inhibitory concentration IC50 of cells, BaF3 LMNA-NTRK1-G667A
T11 construct: fused on or other part: N-terminal part of LMNA as fusion partner (part of the key); P02545 (Prelamin-A/C)
Method: as §2, with “kit.” for “kit. In this test, the cell lines used are Ba/F3 LMNA-NTRK1-WT, Ba/F3 LMNA-NTRK1-F589L, BaF3 LMNA-NTRK1-G595R, BaF3 LMNA-NTRK1-G667A, BaF3 ETV6-NTRK3-WT, BaF3 ETV6-NTRK3-G623R, and Ba/F3 SLC34A2-ROS1-WT stable cell strains, 5000 cells/well.”
as §3, §4, §5, §6, §7, §8, §9, §10, §11

Ba/F3 LMNA-NTRK1-F589L = molecular target: T12, Ba/F3 LMNA-NTRK1-F589L (Homo sapiens, UniProt P04629, F589L, cells depend on it); assay: as above; type: cell-based; details: read-out: Half maximal inhibitory concentration IC50 of cells, Ba/F3 LMNA-NTRK1-F589L
T12 construct: fused on or other part: N-terminal part of LMNA as fusion partner (part of the key); P02545 (Prelamin-A/C)
Method: as §2, with “kit.” for “kit. In this test, the cell lines used are Ba/F3 LMNA-NTRK1-WT, Ba/F3 LMNA-NTRK1-F589L, BaF3 LMNA-NTRK1-G595R, BaF3 LMNA-NTRK1-G667A, BaF3 ETV6-NTRK3-WT, BaF3 ETV6-NTRK3-G623R, and Ba/F3 SLC34A2-ROS1-WT stable cell strains, 5000 cells/well.”
as §3, §4, §5, §6, §7, §8, §9, §10, §11

BaF3 ETV6-NTRK3-WT = molecular target: T13, BaF3 ETV6-NTRK3-WT (Homo sapiens, UniProt Q16288); assay: as above; type: cell-based; details: read-out: Half maximal inhibitory concentration IC50 of cells, BaF3 ETV6-NTRK3-WT
T13 construct: fused on or other part: N-terminal part of ETV6 (TEL) as fusion partner (part of the key); P41212 (Transcription factor ETV6)
Method: as §2, with “kit.” for “kit. In this test, the cell lines used are Ba/F3 LMNA-NTRK1-WT, Ba/F3 LMNA-NTRK1-F589L, BaF3 LMNA-NTRK1-G595R, BaF3 LMNA-NTRK1-G667A, BaF3 ETV6-NTRK3-WT, BaF3 ETV6-NTRK3-G623R, and Ba/F3 SLC34A2-ROS1-WT stable cell strains, 5000 cells/well.”
as §3, §4, §5, §6, §7, §8, §9, §10, §11

[1] = Pharmacokinetic test of compounds in mice (plasma, LC/MS/MS); type: in vivo, male CD-1 mice; details: for AUC(0-t): read-out: Area under the curve AUC0-last
Method: Experimental purpose: male CD-1 mice aged 7-9 weeks were selected as test animals, and the drug concentrations of the compounds in plasma at different time points after single intravenous injection (IV) and intragastric administration (PO) of the compounds were measured by an LC/MS/MS method, so that the pharmacokinetic behavior of the compounds disclosed herein in mice was studied, and the pharmacokinetic characteristic of the compounds was evaluated.
Drug preparation: the compounds were all prepared into clear solution by taking 5% DMSO+10% solutol+85% water as vehicle, and were used for administration in IV and PO groups. The dose of each compound administered was: IV, 3 mg/kg; PO, 10 mg/kg.

T1 sequence (P04629 33-796): as the sequence (P04629 33-796 G667C) above, with C635G counted along it

Compound	IC50 (TrkA) [nM]	IC50 (Ros1) [nM]	IC50 (TrkA-G667C) [nM]	IC50 (ALK) [nM]	IC50 (TrkA-G595R) [nM]	IC50 (TrkC) [nM]	GI50 (BaF3 ETV6-NTRK3-G623R) [nM]	GI50 (Ba/F3 LMNA-NTRK1-WT) [nM]	GI50 (BaF3 LMNA-NTRK1-G595R) [nM]	GI50 (Ba/F3 SLC34A2-ROS1-WT) [nM]	GI50 (BaF3 LMNA-NTRK1-G667A) [nM]	GI50 (Ba/F3 LMNA-NTRK1-F589L) [nM]	GI50 (BaF3 ETV6-NTRK3-WT) [nM]	also measured
O=C1NC2(CC2)COc2ccc(F)cc2C2CCCCN2c2ccn3ncc1c3n2 (single isomer, unassigned) [WX002A]	3.2	0.2	0.7	18.5	2.1	0.2	5.8	0.2	0.4	12.6				
O=C1N[C@@H]2COC[C@@H]2Oc2ncc(F)cc2[C@H]2COCCN2c2ccn3ncc1c3n2 [WX005A]	4.7	3.1	0.5	103	0.3	0.1								
C[C@@H]1COC[C@@H]2c3cc(F)cnc3OCC3(CC3)NC(=O)c3cnn4ccc(nc34)N12 [WX007]	0.6	2.2	0.1	901	0.2	0.1	13.1	0.9	6.4	770	1.2	100	4.1	
O=C1N[C@@H]2COC[C@@H]2Oc2ncc(F)cc2C2COCCN2c2ccn3ncc1c3n2 (stereo partly drawn) [WX005A]							11	0.7	5.2	246	3.8	56.6	2.9	Apparent clearance Cl ([1]; IV, 3 mg/kg): 9.78 mL/min/kg; Vd ([1]; male, CD-1, mouse, plasma, IV, 3 mg/kg, read-out: Apparent volume of distribution Vd): 0.78 L/kg; AUC(0-t) ([1]; male, CD-1, mouse, plasma, IV, 3 mg/kg): 12 µM·h; half-life ([1]; male, CD-1, mouse, plasma, IV, 3 mg/kg, read-out: Half-life T1/2 (converted)): 61.2 min; AUC(0-t) ([1]; male, CD-1, mouse, plasma, PO, 10 mg/kg): 21.4 µM·h; bioavailability ([1]; male, CD-1, mouse, plasma, PO, 10 mg/kg, read-out: Bioavailability F %): 54%; Cmax ([1]; male, CD-1, mouse, plasma, PO, 10 mg/kg, read-out: Peak concentration Cmax): 7.12 µM; Tmax ([1]; male, CD-1, mouse, plasma, PO, 10 mg/kg, read-out: Time to peak Tmax): 22.8 min
O=C1NC2(CC2)CNc2ncc(F)cc2C2COCCN2c2ccn3ncc1c3n2 (single isomer, unassigned) [WX010A]	4.1	28.7	189	> 1000	8.9	0.3								
O=C1NC2(CC2)COc2ncc(F)cc2C2COCCN2c2ccn3ncc1c3n2 (single isomer, unassigned) [WX001A]	> 1000													

— patent US20210403485A1, “PYRAZOLOPYRIMIDINE DERIVATIVE AS SELECTIVE TRK INHIBITOR” (SHANDONG LUYE PHARMACEUTICAL CO., LTD., priority 2018, published 2021)
